Laboratory results taken from article PMC6522981, “Structure-based design generated novel hydroxamic acid based preferential HDAC6 lead inhibitor with on-target cytotoxic activity against primary choroid plexus carcinoma” (Journal of Enzyme Inhibition and Medicinal Chemistry, 2019).
Entries after “also recorded” stand apart in the source; their conditions may differ.

What was measured:
human HDAC1 = molecular target: T1, human HDAC1 (Homo sapiens, UniProt Q13547); experiment: HDAC1 inhibitor enzymatic assay, % inhibition at fixed concentration (BPS Bioscience, fluorogenic); type: biochemical; conditions: read-out: %inhibition of HDACs at 10µM of test compound HDAC1; 10 µM compound; mean of two replicates
T1 construct: purchased BPS Bioscience 50051

[1] = system: acetylated α-tubulin in CCHE-45 cells; experiment: Western blot analysis of acetylated α-tubulin in CCHE-45 cells; type: cell-based; conditions: 100 µM, 24 h
Protocol: (§1) CCHE-45 cells were treated with 100 µM of test compound for 24 h. HL60 cell line (a kind gift from Professor Azza Kamel from the National Cancer Institute, Cairo University); and is cultured in RPMI-1640 (Lonza, BE-12-702F) supplemented with 10% Fetal Bovine Serum (FBS, Gibco, 12483–020) and 100 U/ml penicillin and 100 µg/ml streptomycin (Lonza, DE17-602F), has also been treated with different concentrations of 10a in twofold serial dilutions for 24 h. Proteins were extracted from CCHE-45 cells using RIPA Lysis and Extraction Buffer (ThermoScientific, cat. No: 89901) containing 100x Halt Protease and […] Inhibitor Cocktail (ThermoScientific, cat. No. 78444). Followed by protein quantification using Bradford Reagent (Pierce Coomassie Plus (Bradford) Assay Reagent) (ThermoScientific, cat. No. 23238). A total of 50 µg proteins were loaded on a 10% SDS page using 30% Acrylamide/Bisacrylamide 19:1(Serva, cat. No. 10679.01) then transferred by semidry transfer method using Bio-Rad Trans-Blot Turbo transfer system on PVDF Transfer Membrane (ThermoScientific, cat. No. 88518). The membranes were incubated overnight at 4 °C in the primary antibodies Mouse monoclonal Anti-Beta Actin antibody (1:100, abcam, ab8224) and Mouse monoclonal Anti-acetylated α Tubulin (1:200, Santa Cruz Biotechnology, sc-23950). […]

[2] = system: acetylated α-tubulin in HL60 cells; experiment: Western blot analysis of acetylated α-tubulin in HL60 cells; type: cell-based; conditions: 24 h
Protocol: as §1

human HDAC4 = human HDAC4 (Homo sapiens, UniProt P56524); experiment: HDAC4 inhibitor enzymatic assay, % inhibition at fixed concentration; conditions: read-out: %inhibition of HDACs at 10µM of test compound HDAC4
human HDAC7 = molecular target: T2, human HDAC7 (Homo sapiens, UniProt Q8WUI4); experiment: HDAC7 inhibitor enzymatic assay, % inhibition at fixed concentration; conditions: read-out: %inhibition of HDACs at 10µM of test compound HDAC7
T2 sequence (Q8WUI4 479-952 limits assumed): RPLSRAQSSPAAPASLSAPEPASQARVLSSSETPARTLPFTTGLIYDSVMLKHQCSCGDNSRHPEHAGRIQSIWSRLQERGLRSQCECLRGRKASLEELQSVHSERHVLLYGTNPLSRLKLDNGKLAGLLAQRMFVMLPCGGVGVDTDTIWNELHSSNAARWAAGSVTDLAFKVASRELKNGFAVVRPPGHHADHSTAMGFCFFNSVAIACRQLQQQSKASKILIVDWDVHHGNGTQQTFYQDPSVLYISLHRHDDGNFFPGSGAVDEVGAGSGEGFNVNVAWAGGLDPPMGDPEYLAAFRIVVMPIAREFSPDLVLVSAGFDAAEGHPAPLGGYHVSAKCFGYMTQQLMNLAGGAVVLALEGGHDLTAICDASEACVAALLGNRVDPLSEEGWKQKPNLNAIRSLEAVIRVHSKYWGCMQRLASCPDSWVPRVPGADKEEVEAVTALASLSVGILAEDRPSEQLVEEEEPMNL

human HDAC9 = human HDAC9 (Homo sapiens, UniProt Q9UKV0); experiment: HDAC9 inhibitor enzymatic assay, % inhibition at fixed concentration; conditions: read-out: %inhibition of HDACs at 10µM of test compound HDAC9
human HDAC11 = molecular target: T3, human HDAC11 (Homo sapiens, UniProt Q96DB2); experiment: HDAC11 inhibitor enzymatic assay, % inhibition at fixed concentration; conditions: read-out: %inhibition of HDACs at 10µM of test compound HDAC11
T3 sequence (Q96DB2 1-347): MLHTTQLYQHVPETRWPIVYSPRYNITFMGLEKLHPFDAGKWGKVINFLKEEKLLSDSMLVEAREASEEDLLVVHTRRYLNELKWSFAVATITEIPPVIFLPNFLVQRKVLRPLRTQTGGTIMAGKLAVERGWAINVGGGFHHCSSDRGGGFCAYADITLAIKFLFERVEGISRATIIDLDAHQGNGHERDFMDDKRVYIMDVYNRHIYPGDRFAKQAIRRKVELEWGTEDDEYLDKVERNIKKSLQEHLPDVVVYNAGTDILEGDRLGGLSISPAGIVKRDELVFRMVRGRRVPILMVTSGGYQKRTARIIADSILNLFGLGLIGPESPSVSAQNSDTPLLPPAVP

human HDAC3/NCOR2 = human HDAC3/NCOR2 (Homo sapiens, UniProt O15379); experiment: HDAC3/NCOR2 inhibitor enzymatic assay, % inhibition at fixed concentration; conditions: read-out: %inhibition of HDACs at 10µM of test compound HDAC3
human HDAC3/NCOR2, sequence (O15379 whole entry): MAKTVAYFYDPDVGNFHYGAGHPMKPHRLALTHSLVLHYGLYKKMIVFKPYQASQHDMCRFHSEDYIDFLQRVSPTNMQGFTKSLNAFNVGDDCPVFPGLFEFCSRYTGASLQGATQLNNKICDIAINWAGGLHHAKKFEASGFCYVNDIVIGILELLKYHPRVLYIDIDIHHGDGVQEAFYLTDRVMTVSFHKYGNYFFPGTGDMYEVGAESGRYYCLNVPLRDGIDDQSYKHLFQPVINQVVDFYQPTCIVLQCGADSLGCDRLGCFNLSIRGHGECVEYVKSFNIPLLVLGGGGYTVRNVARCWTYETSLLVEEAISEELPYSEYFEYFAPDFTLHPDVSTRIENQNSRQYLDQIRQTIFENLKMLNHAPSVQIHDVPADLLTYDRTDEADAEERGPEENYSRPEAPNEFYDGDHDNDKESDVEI
human HDAC3/NCOR2, sequence (Q9Y618 395-489 partner limits assumed): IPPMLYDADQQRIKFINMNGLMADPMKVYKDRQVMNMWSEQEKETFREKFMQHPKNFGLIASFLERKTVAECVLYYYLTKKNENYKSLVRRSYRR

human HDAC9, sequence (Q9UKV0 1-1066 isoform Q9UKV0-5): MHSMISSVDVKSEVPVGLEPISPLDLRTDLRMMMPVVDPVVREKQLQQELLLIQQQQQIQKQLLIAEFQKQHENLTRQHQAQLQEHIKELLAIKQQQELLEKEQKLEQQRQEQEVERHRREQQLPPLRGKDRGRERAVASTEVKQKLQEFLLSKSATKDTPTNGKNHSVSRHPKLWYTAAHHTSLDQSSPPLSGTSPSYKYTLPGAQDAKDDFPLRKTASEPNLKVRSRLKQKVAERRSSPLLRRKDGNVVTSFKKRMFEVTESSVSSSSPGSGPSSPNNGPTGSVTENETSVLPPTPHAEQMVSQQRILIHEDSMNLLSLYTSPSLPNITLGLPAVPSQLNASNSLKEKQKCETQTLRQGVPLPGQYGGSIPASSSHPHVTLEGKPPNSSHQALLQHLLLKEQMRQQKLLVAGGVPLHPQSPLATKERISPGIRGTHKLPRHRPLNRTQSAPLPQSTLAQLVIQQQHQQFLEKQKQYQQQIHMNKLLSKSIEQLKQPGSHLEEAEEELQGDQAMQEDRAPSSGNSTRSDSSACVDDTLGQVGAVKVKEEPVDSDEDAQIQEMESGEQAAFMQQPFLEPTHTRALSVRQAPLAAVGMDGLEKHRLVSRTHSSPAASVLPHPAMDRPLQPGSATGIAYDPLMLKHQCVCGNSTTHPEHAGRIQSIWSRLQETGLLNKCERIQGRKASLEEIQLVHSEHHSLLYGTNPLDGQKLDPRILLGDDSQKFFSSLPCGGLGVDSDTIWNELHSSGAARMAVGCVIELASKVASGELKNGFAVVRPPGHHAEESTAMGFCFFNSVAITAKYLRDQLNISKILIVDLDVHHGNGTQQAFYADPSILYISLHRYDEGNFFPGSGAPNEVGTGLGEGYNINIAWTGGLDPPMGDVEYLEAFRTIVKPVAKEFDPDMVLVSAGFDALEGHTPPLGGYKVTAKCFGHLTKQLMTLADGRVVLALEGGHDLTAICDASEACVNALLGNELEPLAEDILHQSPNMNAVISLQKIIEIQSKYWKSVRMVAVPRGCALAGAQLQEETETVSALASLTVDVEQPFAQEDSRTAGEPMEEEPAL
human HDAC4, sequence (P56524 627-1084 limits assumed): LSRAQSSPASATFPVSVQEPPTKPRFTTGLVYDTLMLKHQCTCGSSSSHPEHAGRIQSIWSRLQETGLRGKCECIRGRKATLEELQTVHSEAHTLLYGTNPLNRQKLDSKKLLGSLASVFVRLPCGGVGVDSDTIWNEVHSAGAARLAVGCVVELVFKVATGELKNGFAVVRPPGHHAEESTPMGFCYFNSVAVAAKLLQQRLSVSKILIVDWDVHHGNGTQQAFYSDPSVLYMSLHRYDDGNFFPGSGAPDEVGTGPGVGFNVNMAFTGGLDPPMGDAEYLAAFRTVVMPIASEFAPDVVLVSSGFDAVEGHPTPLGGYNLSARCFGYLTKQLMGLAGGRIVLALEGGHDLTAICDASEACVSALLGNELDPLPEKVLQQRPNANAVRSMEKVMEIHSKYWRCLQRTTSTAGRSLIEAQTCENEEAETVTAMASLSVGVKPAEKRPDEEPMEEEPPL
T1 sequence (Q13547 whole entry): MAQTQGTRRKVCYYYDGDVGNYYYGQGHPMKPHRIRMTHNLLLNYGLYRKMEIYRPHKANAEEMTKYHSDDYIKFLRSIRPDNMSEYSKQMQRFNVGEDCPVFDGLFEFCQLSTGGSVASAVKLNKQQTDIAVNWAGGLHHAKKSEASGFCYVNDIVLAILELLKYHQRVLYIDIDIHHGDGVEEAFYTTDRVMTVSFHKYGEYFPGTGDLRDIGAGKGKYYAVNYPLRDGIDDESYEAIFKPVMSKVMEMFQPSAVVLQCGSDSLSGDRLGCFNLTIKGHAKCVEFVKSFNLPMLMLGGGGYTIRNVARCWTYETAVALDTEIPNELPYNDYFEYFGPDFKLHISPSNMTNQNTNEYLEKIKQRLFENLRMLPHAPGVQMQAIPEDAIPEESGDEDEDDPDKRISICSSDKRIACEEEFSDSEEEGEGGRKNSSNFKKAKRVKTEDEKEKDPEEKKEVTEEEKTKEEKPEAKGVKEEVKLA

Compound: O=C(CCCSc1nc2ccccc2n1Cc1ccccc1)NO [Compound 10a, 4-((1-benzyl-1H-benzo[d]imidazol-2-yl)thio)-N-hydroxybutanamide]
- inhibition at 10 µM (human HDAC1): 36%
- acetylated α-tubulin level (Western blot) [1]: significant increase; also recorded: upregulated acetylated α-tubulin
- concentration with significant upregulation of acetylated α-tubulin ([2]; 6.25-100 µM tested): 25 µM
- concentration from which acetylated α-tubulin is upregulated ([2]; Figure 6 legend): ≥ 12.5 µM
- inhibition at 10 µM (human HDAC4): 1%
- inhibition at 10 µM (human HDAC7): 2%
- inhibition at 10 µM (human HDAC9): 5%
- inhibition at 10 µM (human HDAC11): 6%
- inhibition at 10 µM (human HDAC3/NCOR2): 37%
